According to paper PMC9125976, “Cyanoacetohydrazide linked to 1,2,3-triazole derivatives: a new class of α-glucosidase inhibitors” (Scientific Reports, 2022):
“Also recorded” adds a separate entry of the source.

Tests used:
[1] = target: T1, α-glucosidase (Saccharomyces cerevisiae, UniProt P53341); settings: cited from earlier work
T1 construct: purchased Sigma-Aldrich

[2] = target: T2, α-Glucosidase (Saccharomyces cerevisiae, EC3.2.1.20) (Saccharomyces cerevisiae, UniProt P53341); assay: In vitro α-glucosidase inhibition assay; format: biochemical
T2 construct: purchased Sigma-Aldrich
Description: α-Glucosidase (Saccharomyces cerevisiae, EC3.2.1.20, 20 U/mg) and the substrate, […] (p-NPG) were purchased from Sigma-Aldrich and the assay was performed exactly according to our previous report. In this respect, various concentrations of each synthesized compound dissolved in DMSO, were added to potassium phosphate buffer (50 mM, pH 6.8) including enzyme (at final concentration of 0.1 U/mL), in a 96-well plate. After a 10-min incubation at 37 °C, p-NPG was added to each well to achieve final concentration of 4 mM. Then, the plate was re-incubated at 37 °C for 20 min. It should be noted that the final concentration of DMSO in each enzymatic solution was 10%. Finally, the change in the absorbance was measured at 405 nm using spectrophotometer (Synergy HTX Multi-Mode Microplate Reader–BioTek, Germany). […] The percentage of inhibition for compounds and control was calculated using Eq. (1):1 Inhibition%=ODnegative control-ODsample/ODnegative control×100OD=optical density at 405 nm.
IC50 values were calculated from the nonlinear regression curve using the Logit method.

[3] = target: T1, α-glucosidase; assay: Enzyme kinetic studies (Lineweaver–Burk plot); format: biochemical; settings: for Ki: p-NPG 2–16 mM
Excerpt: A Lineweaver–Burk plot was generated to identify the type of inhibition and the Michaelis–Menten constant.

[4] = target: T1, α-glucosidase; assay: Fluorescence spectroscopy measurements; format: binding; settings: 9e 0–1.0 μM, excitation 280 nm, emission maximum 340 nm, phosphate buffer 50 mM pH 6.8
Description: Compound 9e at different concentrations (0–1.0 µM) was added into the 3 mL solution containing a fixed amount of α-glucosidase (0.1 U/mL). All mixtures were held for 10 min to equilibrate before measurements. Then, the fluorescence emission spectra were measured from 300 to 450 nm at the excitation wavelength of 280 nm on a Synergy HTX multi-mode reader (Biotek Instruments, Winooski, VT, USA) equipped with a 1.0 cm quartz cell holder. The fluorescence spectra of the buffer containing compound 9e in the absence of the enzyme were subtracted as the background fluorescence.

[5] = target: T1, α-glucosidase; assay: Thermodynamic analysis (thermal denaturation followed by fluorescence)
Description: Thermodynamic analysis was performed as described by Mojtabavi et al., the fluorescent intensity data were plotted as a function of temperature, and the thermodynamic profile was computed[48],[49]. Therefore, the denatured fraction (FD) of protein was calculated from Eq. (2), assuming a two-state mechanism for the protein denaturation:2 FD=YN-Yobs/YN-YD.
In Eq. (2), Yobs, YN, and YD are the observed […] characteristics of a fully native and denatured conformation, respectively. Equation (3) was used to calculate the apparent equilibrium constant (K) for a reversible denaturation process between native and denatured protein states:3 K=FD/1-FD=Yobs-YD/YN-YD.
The standard Gibbs free energy change (ΔG°) for protein denaturation is given by the Eq. (4):4 ΔG^^∘=GD^∘-GN^∘=-RTlnK, where T and R are the absolute temperature and the universal gas constant, respectively. The Gibbs free energy (ΔG°) is the most valuable standard of protein conformational stability in thermal denaturation. The integrated Gibbs–Helmholtz equation was utilized for measuring changes in the Gibbs energy of a system as a function of temperature (Eq. (5)):5 ΔG^^∘=ΔHm^∘1-T/Tm-ΔCpTm-T+TLnT/Tm, where ΔCp is the heat capacity of protein denaturation. The ΔCp (11.6 kJ/mol K) of the α-glucosidase denaturation was taken from van der Kamp et al. report. In thermal denaturation, Tm is the temperature at which the protein is half denatured. ΔH°m and ΔS°m are the standard enthalpy and entropy of denaturation. The standard entropy was calculated from a relation between the standard […] of denaturation as bellow: ΔH=TmΔS.

T2 sequence (P53341 whole entry): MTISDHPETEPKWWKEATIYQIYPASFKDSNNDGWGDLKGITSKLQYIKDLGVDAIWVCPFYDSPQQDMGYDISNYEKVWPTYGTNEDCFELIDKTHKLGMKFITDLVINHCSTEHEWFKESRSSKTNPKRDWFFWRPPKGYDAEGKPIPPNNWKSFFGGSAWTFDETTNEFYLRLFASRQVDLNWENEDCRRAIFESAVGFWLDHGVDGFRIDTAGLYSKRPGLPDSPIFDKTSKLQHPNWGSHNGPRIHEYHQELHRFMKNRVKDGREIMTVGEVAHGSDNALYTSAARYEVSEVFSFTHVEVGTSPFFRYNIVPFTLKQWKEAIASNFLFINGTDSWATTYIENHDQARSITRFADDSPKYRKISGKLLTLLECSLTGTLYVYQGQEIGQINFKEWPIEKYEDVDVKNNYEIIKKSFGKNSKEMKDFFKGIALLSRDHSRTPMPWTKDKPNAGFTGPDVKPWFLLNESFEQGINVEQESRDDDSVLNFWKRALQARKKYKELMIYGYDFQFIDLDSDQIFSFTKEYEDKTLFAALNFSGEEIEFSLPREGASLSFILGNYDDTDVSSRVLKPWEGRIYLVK
T1 sequence (P53341 whole entry): as above

CCc1ccc(NC(=O)Cn2cc(COc3ccc(-c4nc5ccccc5[nH]4)cc3)nn2)cc1 [B]
mode of inhibition [1]: competitive

COc1cc(C=NNC(=O)CC#N)ccc1OCc1cn(Cc2ccccc2)nn1 [Compound 9a, N′-(4-((1-benzyl-1H-1,2,3-triazol-4-yl)methoxy)-3-methoxybenzylidene)-2-cyanoacetohydrazide]
IC50 [2]: > 750 µM

COc1cc(C=NNC(=O)CC#N)ccc1OCc1cn(Cc2ccccc2F)nn1 [Compound 9b, 2-Cyano-N′-(4-((1-(2-fluorobenzyl)-1H-1,2,3-triazol-4-yl)methoxy)-3-methoxybenzylidene)acetohydrazide]
IC50 [2]: 1.5 ± 0.01 µM | type of inhibition [3]: uncompetitive inhibition; also recorded: uncompetitively | Ki [3]: 0.43 µM

COc1cc(C=NNC(=O)CC#N)ccc1OCc1cn(Cc2ccc(F)cc2)nn1 [Compound 9c, 2-Cyano-N′-(4-((1-(4-fluorobenzyl)-1H-1,2,3-triazol-4-yl)methoxy)-3-methoxybenzylidene)acetohydrazide]
IC50 [2]: 9.73 ± 0.3 µM

COc1cc(C=NNC(=O)CC#N)ccc1OCc1cn(Cc2ccccc2Cl)nn1 [Compound 9d, N′-(4-((1-(2-chlorobenzyl)-1H-1,2,3-triazol-4-yl)methoxy)-3-methoxybenzylidene)-2-cyanoacetohydrazide]
IC50 [2]: 14 ± 0.8 µM

COc1cc(C=NNC(=O)CC#N)ccc1OCc1cn(Cc2ccc(Cl)cc2)nn1 [Compound 9e, N′-(4-((1-(4-chlorobenzyl)-1H-1,2,3-triazol-4-yl)methoxy)-3-methoxybenzylidene)-2-cyanoacetohydrazide]
change of α-glucosidase fluorescence [4]: significant increase in fluorescence intensity | Tm of α-glucosidase ([5]; compound 9e 0.25 µM): 316 K | ΔHm° of α-glucosidase denaturation ([5]; compound 9e 0.25 µM): 94.47 kJ/mol | ΔSm° of α-glucosidase denaturation ([5]; compound 9e 0.25 µM): 298.95 J mol^−1 K^−1 | Tm of α-glucosidase ([5]; compound 9e 0.50 µM): 315 K | ΔHm° of α-glucosidase denaturation ([5]; compound 9e 0.50 µM): 112.86 kJ/mol | ΔSm° of α-glucosidase denaturation ([5]; compound 9e 0.50 µM): 358.28 J mol^−1 K^−1 | Tm of α-glucosidase ([5]; compound 9e 0.75 µM): 313 K | ΔHm° of α-glucosidase denaturation ([5]; compound 9e 0.75 µM): 177.09 kJ/mol | ΔSm° of α-glucosidase denaturation ([5]; compound 9e 0.75 µM): 565.76 J mol^−1 K^−1 | Tm of α-glucosidase ([5]; compound 9e 1.0 µM): 311 K | ΔHm° of α-glucosidase denaturation ([5]; compound 9e 1.0 µM): 597.50 kJ/mol | ΔSm° of α-glucosidase denaturation ([5]; compound 9e 1.0 µM): 1921.22 J mol^−1 K^−1 | IC50 [2]: 1 ± 0.01 µM | fold better potency than the standard drug acarbose [2]: 754 fold | type of inhibition [3]: uncompetitive inhibition; also recorded: uncompetitively | Ki [3]: 0.24 µM

COc1cc(C=NNC(=O)CC#N)ccc1OCc1cn(Cc2ccccc2C)nn1 [Compound 9f, 2-Cyano-N′-(3-methoxy-4-((1-(2-methylbenzyl)-1H-1,2,3-triazol-4-yl)methoxy)benzylidene)acetohydrazide]
IC50 [2]: 28 ± 0.1 µM

COc1cc(C=NNC(=O)CC#N)ccc1OCc1cn(Cc2ccc(C)cc2)nn1 [Compound 9g, 2-Cyano-N′-(3-methoxy-4-((1-(4-methylbenzyl)-1H-1,2,3-triazol-4-yl)methoxy)benzylidene)acetohydrazide]
IC50 [2]: 22.8 ± 0.6 µM

N#CCC(=O)NN=Cc1ccc(OCc2cn(Cc3ccccc3)nn2)cc1 [Compound 9h, N′-(4-((1-benzyl-1H-1,2,3-triazol-4-yl)methoxy)benzylidene)-2-cyanoacetohydrazide]
IC50 [2]: 271.2 ± 0.3 µM

N#CCC(=O)NN=Cc1ccc(OCc2cn(Cc3ccccc3F)nn2)cc1 [Compound 9i, 2-Cyano-N′-(4-((1-(2-fluorobenzyl)-1H-1,2,3-triazol-4-yl)methoxy)benzylidene)acetohydrazide]
IC50 [2]: 45.89 ± 0.1 µM | type of inhibition [3]: competitive inhibition | Ki [3]: 75 µM

N#CCC(=O)NN=Cc1ccc(OCc2cn(Cc3ccc(F)cc3)nn2)cc1 [Compound 9j, 2-Cyano-N′-(4-((1-(4-fluorobenzyl)-1H-1,2,3-triazol-4-yl)methoxy)benzylidene)acetohydrazide]
IC50 [2]: 56.6 ± 0.7 µM

N#CCC(=O)NN=Cc1ccc(OCc2cn(Cc3ccccc3Cl)nn2)cc1 [Compound 9k, N′-(4-((1-(2-chlorobenzyl)-1H-1,2,3-triazol-4-yl)methoxy)benzylidene)-2-cyanoacetohydrazide]
IC50 [2]: 74.7 ± 2.8 µM

N#CCC(=O)NN=Cc1ccc(OCc2cn(Cc3ccc(Cl)cc3)nn2)cc1 [Compound 9l, N′-(4-((1-(4-chlorobenzyl)-1H-1,2,3-triazol-4-yl)methoxy)benzylidene)-2-cyanoacetohydrazide]
IC50 [2]: 21.66 ± 0.12 µM | type of inhibition [3]: competitive inhibition | Ki [3]: 85 µM

Cc1ccccc1Cn1cc(COc2ccc(C=NNC(=O)CC#N)cc2)nn1 [Compound 9m, 2-Cyano-N′-(4-((1-(2-methylbenzyl)-1H-1,2,3-triazol-4-yl)methoxy)benzylidene)acetohydrazide]
IC50 [2]: 11.3 ± 0.2 µM

Cc1ccc(Cn2cc(COc3ccc(C=NNC(=O)CC#N)cc3)nn2)cc1 [Compound 9n, 2-Cyano-N′-(4-((1-(4-methylbenzyl)-1H-1,2,3-triazol-4-yl)methoxy)benzylidene)acetohydrazide]
IC50 [2]: 82.4 ± 1.3 µM

O=c1oc2ccccc2c(O)c1C(c1ccc(OCc2cn(Cc3ccccc3Cl)nn2)cc1)c1c(O)c2ccccc2oc1=O [Compound A]
mode of inhibition [1]: competitive

O=C1Nc2ccccc2/C1=N/N=C/c1ccc(OCc2cn(Cc3ccccc3F)nn2)cc1 [Compound C]
fold improvement in the inhibitory activity compared to acarbose [1]: 46 fold
